Earlier results as cited in EP0002485B1, “Process for the preparation of marking compositions containing tin” (HOECHST AKTIENGESELLSCHAFT, priority 1977, dated 1979).

Experiments:
[1] = labelled with Tc-99m; compared with pyro- and polyphosphates
[2] = time until optimum of skeletal accumulation

Row | Substance | Plasmaclearance [1] | Anreicherung im Skelett erreicht das Optimum [2]
1 | 1-Hydroxyäthan-1,1-diphosphonsäure [HEDP] | bedeutend schnellere | 
2 | Methylendiphosphonsäure [MDP] |  | zwei
